Results as given in publication PMC7408547, “Bivalent Inhibitor with Selectivity for Trimeric MMP-9 Amplifies Neutrophil Chemotaxis and Enables Functional Studies on MMP-9 Proteoforms” (Cells, 2020).
“Also recorded” adds a separate entry of the source.

Tests used:
C57BL/6 mice [1] = test: Mouse endotoxemia model; format: in vivo; conditions: for levels of MMP-9 in plasma and lungs (Western blot): 5 h after LPS/compound administration
Procedure: Endotoxemia was induced in 8-week old C57BL/6 mice by intraperitoneal (i.p.) injection of lipopolysaccharides (LPS) (Escherichia coli 0111:B4, cat. no. 4391, Sigma-Aldrich, St. Louis, MO, USA ) at 10 mg/kg. Control mice were injected with an equal volume of vehicle (pyrogen-free phosphate-buffered saline). A volume of 500 µl compound 5 or 7, diluted in PBS with 2% DMSO (2 mg/mL), was injected i.p. at the same time as the LPS injection (± 50 mg/kg). […] After induction of endotoxemia, progression of the disease was monitored by hourly evaluation of mouse body temperature (rectal probe) and disease scoring by use of the mouse sepsis score (MSS) as described. When the MSS score was above 21, humane endpoints were reached and mice were sacrificed. Blood was collected by cardiac puncture with a heparin-coated needle and syringe, and immediately processed by centrifugation (2000× g for 10 min at 4 °C). The supernatant (plasma) was collected and stored for further analysis. Mice were dissected and organs were stored for further analysis. Bone marrow cells were collected from femora by flushing the medullary cavity with PBS and after centrifugation the cell pellet was immediately processed for downstream analysis. All procedures were conducted in accordance with protocols approved by the local ethics committee (project number P128/2019, KU Leuven, Belgium).
Tissues were homogenized and proteins extracted with a Precellys lysing kit (Bertin Technologies, Rockville, MD, USA). Briefly, tissues were placed in hard tissue homogenizing CK28 tubes (Bertin Technologies, Rockville, MD, USA). Then, 600 µL of RIPA buffer was added to all tubes and homogenization was done using the Precellys®24 (Bertin Technologies, Rockville, MD, USA). To precipitate all tissue debris, the tubes were centrifuged at 20,800× g and 4 °C for 15 min. Supernatant, containing soluble proteins, was collected and used for further analysis. Total protein content of all samples was determined by using a standard Bradford assay (Bio-Rad, Hercules, CA, USA). […] Proteins were transferred to PVDF membranes using the Trans-Blot Turbo Transfer System with associated materials and protocols (Biorad, Hercules, CA, USA). Next, membranes were blocked for 1 h in 5% BSA with TBST buffer (150 mM NaCl, 0.1% Tween 20, 50 mM Tris, pH 7.5). Membranes were incubated overnight with anti-MMP-9 (AF909, R & D systems, Minneapolis, MO, USA) or anti-tubulin (MA5-16308-HRP, Invitrogen, Carlsbad, CA, USA) antibodies. After washing, the blot was incubated with peroxidase-conjugated anti-goat IgG (PI-9500, Vector Labs, Burlingame, CA, USA) or anti-mouse IgG (115-035-071, Jackson ImmunoResearch, PA, USA) for 1 h at room temperature. […]

C57BL/6 mice [2] = test: Mouse air pouch model of in vivo chemotaxis towards LPS; conditions: for total amount of white blood cells recruited to the pouches: compound 5 µg with LPS 2 µg, 4 h after injection
Procedure: Air pouches were established by injecting C57BL/6 mice on dorsal sites with 3 mL filtered air (0.20 μm filter) on days 0 and 3. On day 6, test samples were injected in a total volume of 1 mL and at the indicated amount. After 4 h, mice were euthanized and the exudates of the pouches were collected after injection of 1 mL pyrogen-free PBS containing 20 U/mL heparin and 2% KnockOut™ Serum Replacement (Gibco, Waltham, MA, USA), and followed by 30 sec of gentle massage. This procedure was repeated twice with 2 mL buffer. Next, the pouch fluid was centrifuged (10 min, 500× g) and supernatant and cell pellets were separated for further analysis. Data were collected during three independent experiments with 3–4 mice per group. All procedures were conducted in accordance with protocols approved by the local Ethics Committee (License number P033/2018, Belgium).
For microscopic evaluation of cells derived from air pouches, 75 × 10^3 cells were deposited evenly onto a glass slide by centrifugation using a Shandon Cytospin 2 apparatus (Thermo Shandon, Pittsburgh, PA, USA). Next, the preparations were stained with Hemacolor (Merck Chemicals, Darmstadt, Germany). Cells were divided into 4 categories; neutrophils, monocytes/macrophages, lymphocytes and other cells. For each condition, three times 100 cells were counted and the average was used as a final value.
Approximately 10^6 cells were incubated for 15 min with the Fc-receptor-blocking antibodies anti-CD16/anti-CD32 (BD Biosciences Pharmingen, San Diego, CA, USA) and with a Zombie Aqua™ viability dye (BioLegend, San Diego, CA, USA). […] Cells were analyzed on a BD LSR Fortessa X20 with DIVA software (BD, Franklin Lakes, NJ, USA, v9.0). Results were further analyzed with the FlowJo software (BD, Franklin Lakes, NJ, USA, v10.0). […]

[3] = 10 mg/kg LPS i.p. and ± 50 mg/kg compound i.p. simultaneously, hourly

CC(C)[C@H](C(=O)O)N(CCNC(=O)c1cccc(C(=O)NCCN([C@@H](C(=O)O)C(C)C)S(=O)(=O)c2ccc(-c3ccccc3)cc2)c1)S(=O)(=O)c1ccc(-c2ccccc2)cc1 [Compound 7]
disease score (mouse sepsis score, MSS) (C57BL/6 mice [1]; [3]): (although not significant) increase in disease score; also recorded: did not alter disease scores compared to compound 5
mouse body temperature (C57BL/6 mice [1]; [3]): early and significant drop in mouse body temperature
levels of MMP-9 in plasma and lungs (Western blot) (C57BL/6 mice [1]): further induce the presence of MMP-9; also recorded: increased
levels of MMP-9 in plasma and lungs (Western blot) (C57BL/6 mice [1]; listed as bivalent inhibitor): significantly increased levels of MMP-9 in plasma and lungs
neutrophil migration towards E. coli-derived LPS (C57BL/6 mice [2]; air pouch, 4 h): increases neutrophil migration
total amount of white blood cells recruited to the pouches (C57BL/6 mice [2]): significant increase compared to LPS alone
total amount of white blood cells recruited to the pouches (C57BL/6 mice [2]; listed as bivalent inhibitor): amplified leukocyte influxes
